In patent publication US12285408B2, “Methods and compositions for the treatment of snake bite” (priority 2021, dated 2025):

System: Echis ocellatus venom
Experiment: Murine 'challenge then treat' model of envenoming, intraperitoneal
Format: in vivo, CD-1 mice
Procedure: FIG. 18. […] Kaplan-Meier survival graphs for experimental animals (n=5) that received E. ocellatus venom (intraperitoneal administration of 90 μg; 5×iv. LD50), followed by delayed drug treatment intraperitoneally 15 mins later. […] For the DMPS and antivenom (D+AV) group, experimental animals received 120 μg of DMPS 15 mins after venom, and intravenous antivenom (168 μl of the E. ocellatus monospecific antivenom EchiTAbG, MicroPharm Ltd, UK) 1 hr after venom delivery. All DMPS data presented is taken from Albulescu et al. “Preclinical validation of a repurposed metal chelator as an early-intervention therapeutic for hemotoxic snakebite. Sci. Trans. Med. 12, eaay8314 (2020)”).
To better mimic a snakebite scenario, mice were initially challenged with venom, followed by the delayed administration of a single drug or a combination of drugs, as previously described. The venom challenge dose was increased to ensure complete lethality in the venom-only control group occurred within 4-5 hours. Groups of five male 18-22 g CD-1 mice (Charles River, UK) were injected with venom (100 μl final volume), followed by a drug dose that was scaled up accordingly after 15 min. […] Experimental animals were monitored for 24 h, with humane end points for euthanasia, and data recording, performed as described above. […]

Question: What does the source list for `O=S(=O)(O)CC(S)CS` (centres unmarked) [DMPS, 2,3-dimercapto-1-propanesulfonic acid]?
Answer: survival (90 μg venom i.p. (5×i.v. LD50), 120 μg of each drug i.p. 15 min later, 24 h monitoring, n=5): only two of the five experimental animals survived; adverse effects in drug-only controls (drug only, i.p., 24 hour monitoring): None of the animals receiving DMPS alone displayed any adverse effects
